Values joined by “and” are separate entries in the source; they are usually repeats but may differ in a detail not shown here. Equal entries are not always repeated. Toxic doses and inconclusive results are not listed. Rule as the data show it: active = T/C of 150% or more; inactive = T/C below 125%.
Test system: L1210 leukemia ip in BDF1 mice, survival T/C
Experiment: NCI In Vivo Anticancer Drug Screen. Data for tumor model L1210 Leukemia (intraperitoneal) in B6D2F1 (BDF1) mice
Conditions: endpoint: mean survival time, higher = longer survival
Method in brief: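 Survival endpoint. Drug-treated group vs vehicle group, expressed as T divided by C. Tumor passaged by transplantation.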

[1] = dose: 12.5 mg/kg/injection, schedule: Q01DX001 (ip), vehicle: Klucel (hydroxypropylcellulose) (HPC)
[2] = dose: 25.0 mg/kg/injection, schedule: Q01DX001 (ip), vehicle: Klucel (hydroxypropylcellulose) (HPC)
[3] = dose: 100.0 mg/kg/injection, schedule: Q01DX001 (ip), vehicle: saline
[4] = dose: 200.0 mg/kg/injection, schedule: Q01DX001 (ip), vehicle: saline
[5] = dose: 400.0 mg/kg/injection, schedule: Q01DX001 (ip), vehicle: saline
[6] = dose: 50.0 mg/kg/injection, schedule: Q01DX009 (ip), vehicle: saline with Tween-80
[7] = dose: 100.0 mg/kg/injection, schedule: Q04DX003 (ip), vehicle: Klucel (hydroxypropylcellulose) (HPC)
[8] = dose: 200.0 mg/kg/injection, schedule: Q01DX009 (ip), vehicle: saline with Tween-80
[9] = dose: 200.0 mg/kg/injection, schedule: Q04DX003 (ip), vehicle: Klucel (hydroxypropylcellulose) (HPC)
[10] = dose: 25.0 mg/kg/injection, schedule: Q01DX009 (ip), vehicle: saline with Tween-80
[11] = dose: 100.0 mg/kg/injection, schedule: Q01DX009 (ip), vehicle: saline with Tween-80
[12] = dose: 400.0 mg/kg/injection, schedule: Q01DX009 (ip), vehicle: saline with Tween-80
[13] = dose: 100.0 mg/kg/injection, schedule: Q01DX009 (ip), vehicle: Klucel (hydroxypropylcellulose) (HPC)
[14] = dose: 200.0 mg/kg/injection, schedule: Q01DX009 (ip), vehicle: Klucel (hydroxypropylcellulose) (HPC)
[15] = dose: 400.0 mg/kg/injection, schedule: Q01DX009 (ip), vehicle: Klucel (hydroxypropylcellulose) (HPC)
[16] = dose: 400.0 mg/kg/injection, schedule: Q04DX003 (ip), vehicle: Klucel (hydroxypropylcellulose) (HPC)
[17] = dose: 400.0 mg/kg/injection, schedule: Q01DX001 (ip), vehicle: Klucel (hydroxypropylcellulose) (HPC)

Measured: T/C

ClC1=C(Cl)C(Cl)(Cl)SS1
inactive: dose: 9.5 mg/kg/injection, schedule: Q01DX001 (ip), vehicle: other 100 % of control | dose: 10.0 mg/kg/injection, schedule: Q04DX003 (ip), vehicle: other 100 % of control | dose: 19.0 mg/kg/injection, schedule: Q01DX001 (ip), vehicle: other 103 % of control | dose: 20.0 mg/kg/injection, schedule: Q04DX003 (ip), vehicle: other 92 % of control | dose: 38.0 mg/kg/injection, schedule: Q01DX001 (ip), vehicle: other 91 % of control | dose: 40.0 mg/kg/injection, schedule: Q04DX003 (ip), vehicle: other 89 % of control | dose: 75.0 mg/kg/injection, schedule: Q01DX001 (ip), vehicle: other 93 % of control

OCCN1CCN(CCCN2c3ccccc3Sc3ccc(Cl)cc32)CC1
inactive: dose: 6.25 mg/kg/injection, schedule: Q01DX001 (ip), vehicle: Klucel (hydroxypropylcellulose) (HPC) 97 % of control | [1] 105 % of control | [2] 111 % of control | dose: 200.0 mg/kg/injection, schedule: Q04DX002 (ip), vehicle: Klucel (hydroxypropylcellulose) (HPC) 108 % of control

O=c1cc(O)cc(Cl)[nH]1
inactive: [3] 96 % of control | [4] 91 % of control | [5] 96 % of control

CCOC(=O)CC1NCCC2C1CCC(OC)C2OC (stereo not given)
inactive: [6] 106 % of control | [7] 98 % of control | [8] 95 % of control | [9] 104 % of control

CSc1nc([N+](=O)[O-])c2cnccn12
inactive: dose: 6.25 mg/kg/injection, schedule: Q01DX009 (ip), vehicle: saline with Tween-80 88 % of control | dose: 12.5 mg/kg/injection, schedule: Q01DX009 (ip), vehicle: saline with Tween-80 93 % of control | dose: 12.5 mg/kg/injection, schedule: Q04DX003 (ip), vehicle: saline with Tween-80 101 % of control | [10] 93 % of control | dose: 25.0 mg/kg/injection, schedule: Q04DX003 (ip), vehicle: saline with Tween-80 103 % of control | [6] 93 % of control

O=S(=O)(Nc1ccc(NS(=O)(=O)c2ccccc2)c2ccccc12)c1ccccc1
inactive: [11] 87 % of control | [8] 92 % of control | [12] 92 % of control

CCOc1ccc(N=Cc2cccc([N+](=O)[O-])c2)cc1
inactive: dose: 100.0 mg/kg/injection, schedule: Q01DX001 (ip), vehicle: saline with Tween-80 103 % of control | [11] 107 % of control and 90 % of control | dose: 200.0 mg/kg/injection, schedule: Q01DX001 (ip), vehicle: saline with Tween-80 90 % of control | [8] 97 % of control and 90 % of control | dose: 400.0 mg/kg/injection, schedule: Q01DX001 (ip), vehicle: saline with Tween-80 99 % of control | [12] 100 % of control and 91 % of control

CC(C)(C)N1CCOCC1
inactive: dose: 25.0 mg/kg/injection, schedule: Q01DX009 (ip), vehicle: acetone 91 % of control | dose: 50.0 mg/kg/injection, schedule: Q01DX009 (ip), vehicle: acetone 92 % of control | dose: 100.0 mg/kg/injection, schedule: Q01DX009 (ip), vehicle: acetone 87 % of control

Cc1cc[n+](Cc2ccccc2Cl)cc1
inactive: dose: 6.25 mg/kg/injection, schedule: Q01DX009 (ip), vehicle: saline 97 % of control | dose: 6.25 mg/kg/injection, schedule: Q04DX003 (ip), vehicle: saline 96 % of control | dose: 12.5 mg/kg/injection, schedule: Q01DX009 (ip), vehicle: saline 97 % of control | dose: 12.5 mg/kg/injection, schedule: Q04DX003 (ip), vehicle: saline 107 % of control | dose: 25.0 mg/kg/injection, schedule: Q01DX009 (ip), vehicle: saline 100 % of control | dose: 25.0 mg/kg/injection, schedule: Q04DX003 (ip), vehicle: saline 89 % of control

COc1cc(C(=O)O)c(O)c(OC)c1OC
inactive: [13] 96 % of control | [7] 98 % of control | [14] 106 % of control | [9] 101 % of control | [15] 101 % of control | [16] 104 % of control

O=C(CNC(=O)Nc1ccc(F)cc1)NNC(=O)Nc1ccc(Cl)c([N+](=O)[O-])c1
inactive: [10] 94 % of control | [6] 93 % of control | [11] 102 % of control

CC(=O)c1ccccc1NC(=O)c1ccccc1F
inactive: [13] 98 % of control | [14] 113 % of control | [15] 95 % of control

Cc1ccn2c(=O)c(CCBr)c(C)nc2c1
inactive: dose: 4.7 mg/kg/injection, schedule: Q01DX009 (ip), vehicle: saline 101 % of control | dose: 9.4 mg/kg/injection, schedule: Q01DX009 (ip), vehicle: saline 100 % of control | dose: 18.8 mg/kg/injection, schedule: Q01DX009 (ip), vehicle: saline 91 % of control | dose: 18.8 mg/kg/injection, schedule: Q04DX003 (ip), vehicle: saline 94 % of control

COc1c(Cl)cc([N+](=O)[O-])cc1Cl
inactive: dose: 25.0 mg/kg/injection, schedule: Q01DX009 (ip), vehicle: gum acacia 100 % of control | dose: 50.0 mg/kg/injection, schedule: Q01DX009 (ip), vehicle: gum acacia 106 % of control

COc1ccc(C(OCC2OC(n3nnc4c(=O)[nH]c(N)nc43)CC2OC(C)=O)(c2ccccc2)c2ccc(OC)cc2)cc1 (stereo not given)
inactive: [1] 103 % of control | [2] 93 % of control | dose: 50.0 mg/kg/injection, schedule: Q01DX001 (ip), vehicle: Klucel (hydroxypropylcellulose) (HPC) 97 % of control | [17] 100 % of control

O=C1ON(c2ccccc2)C(c2ccccc2)N1c1ccc([N+](=O)[O-])cc1 (stereo not given)
inactive: dose: 50.0 mg/kg/injection, schedule: Q01DX001 (ip), vehicle: saline 106 % of control | [3] 114 % of control | [4] 100 % of control | [5] 112 % of control

O=NN1CCCCCCC1C(=O)O (stereo not given)
inactive: [3] 102 % of control | [4] 98 % of control | [5] 102 % of control

CN(CC1CNc2nc(N)[nH]c(=O)c2N1C)c1ccc(C(=O)NC(CCC(=O)O)C(=O)O)cc1 (stereo not given)
inactive: [3] 94 % of control | [4] 102 % of control | [5] 94 % of control

O=C(CCCOc1ccccc1)NCc1ccccc1[N+](=O)[O-]
inactive: dose: 100.0 mg/kg/injection, schedule: Q01DX001 (ip), vehicle: Klucel (hydroxypropylcellulose) (HPC) 92 % of control | dose: 200.0 mg/kg/injection, schedule: Q01DX001 (ip), vehicle: Klucel (hydroxypropylcellulose) (HPC) 96 % of control | [17] 102 % of control

CCOC(=O)Nc1cc(Cl)c([N+](=O)[O-])c(N)n1
inactive: dose: 50.0 mg/kg/injection, schedule: Q01DX001 (ip), vehicle: other 106 % of control | dose: 100.0 mg/kg/injection, schedule: Q01DX001 (ip), vehicle: other 101 % of control | dose: 100.0 mg/kg/injection, schedule: Q04DX003 (ip), vehicle: saline with Tween-80 92 % of control | dose: 200.0 mg/kg/injection, schedule: Q01DX001 (ip), vehicle: other 109 % of control | dose: 200.0 mg/kg/injection, schedule: Q04DX003 (ip), vehicle: saline with Tween-80 116 % of control | dose: 400.0 mg/kg/injection, schedule: Q01DX001 (ip), vehicle: other 104 % of control | dose: 400.0 mg/kg/injection, schedule: Q04DX003 (ip), vehicle: saline with Tween-80 104 % of control

CCCCCCCCCCCOP(=O)(OCC)OCC
inactive: dose: 100.0 mg/kg/injection, schedule: Q04DX002 (ip), vehicle: saline with Tween-80 95 % of control | dose: 200.0 mg/kg/injection, schedule: Q04DX002 (ip), vehicle: saline with Tween-80 95 % of control | dose: 400.0 mg/kg/injection, schedule: Q04DX002 (ip), vehicle: saline with Tween-80 106 % of control

CCCCOc1ccc(/C=N\N=C\c2ccc(OCCCC)cc2)cc1
inactive: [11] 90 % of control | [8] 88 % of control

CCc1ccc(N=C/C=C/c2ccccc2)cc1
inactive: dose: 25.0 mg/kg/injection, schedule: Q01DX009 (ip), vehicle: other 98 % of control | dose: 50.0 mg/kg/injection, schedule: Q01DX009 (ip), vehicle: other 98 % of control | dose: 100.0 mg/kg/injection, schedule: Q01DX009 (ip), vehicle: other 98 % of control and 110 % of control

COc1cc2c(cc1OC)C(=O)C(C(=O)c1ccccc1)C2 (stereo not given)
inactive: [7] 89 % of control | [9] 109 % of control | [16] 94 % of control

Source: PubChem BioAssay AID248 (DTP/NCI, 2004)
